Data taken from ChEMBL document CHEMBL3596103, “Synthesis of novel amide functionalized 2H-chromene derivatives by Ritter amidation of primary alcohol using HBF4·OEt2 as a mild and versatile reagent and evaluation of their antimicrobial and anti-biofilm activities” (Bioorg Med Chem Lett, 2015).
Converted amounts (≈) assume the structure as drawn. The source made the active and inactive calls. No cut-off for these calls is given here.

Legend:
Staphylococcus aureus [1] = assay: Antimicrobial activity against Staphylococcus aureus MLS16 MTCC 2940 incubated for 24 hrs at 37 degC by well diffusion method; assay type: functional; conditions: MLS16 MTCC 2940, 24 h
Micrococcus luteus [2] = assay: Antimicrobial activity against Micrococcus luteus MTCC 2470 incubated for 24 hrs at 37 degC by well diffusion method; assay type: functional; conditions: MTCC 2470, 24 h
Bacillus subtilis [3] = assay: Antimicrobial activity against Bacillus subtilis MTCC 121 incubated for 24 hrs at 37 degC by well diffusion method; assay type: functional; conditions: MTCC 121, 24 h
Escherichia coli [4] = assay: Antimicrobial activity against Escherichia coli MTCC 739 incubated for 24 hrs at 37 degC by well diffusion method; assay type: functional; conditions: MTCC 739, 24 h
Raoultella planticola [5] = assay: Antimicrobial activity against Klebsiella planticola MTCC 530 incubated for 24 hrs at 37 degC by well diffusion method; assay type: functional; conditions: MTCC 530, 24 h
Pseudomonas aeruginosa = assay: Antimicrobial activity against Pseudomonas aeruginosa MTCC 2453 incubated for 24 hrs at 37 degC by well diffusion method; assay type: functional; conditions: MTCC 2453, 24 h
Candida albicans = assay: Antimicrobial activity against Candida albicans MTCC 3017 incubated for 24 hrs at 30 degC by well diffusion method; assay type: functional; conditions: MTCC 3017, 24 h
Micrococcus luteus [6] = assay: Bactericidal activity against Micrococcus luteus MTCC 2470 incubated for 24 hrs at 37 degC; assay type: functional; conditions: MTCC 2470, 24 h
Staphylococcus aureus [7] = assay: Bactericidal activity against Staphylococcus aureus MLS16 MTCC 2940 incubated for 24 hrs at 37 degC; assay type: functional; conditions: MLS16 MTCC 2940, 24 h
Bacillus subtilis [8] = assay: Bactericidal activity against Bacillus subtilis MTCC 121 incubated for 24 hrs at 37 degC; assay type: functional; conditions: MTCC 121, 24 h
Escherichia coli [9] = assay: Bactericidal activity against Escherichia coli MTCC 739 incubated for 24 hrs at 37 degC; assay type: functional; conditions: MTCC 739, 24 h
Raoultella planticola [10] = assay: Bactericidal activity against Klebsiella planticola MTCC 530 incubated for 24 hrs at 37 degC; assay type: functional; conditions: MTCC 530, 24 h
Micrococcus luteus [11] = assay: Inhibition of bio-film formation of Micrococcus luteus MTCC 2470 incubated for 24 hrs at 37 degC under static conditions by crystal violet staining method; assay type: functional, organism-based; conditions: MTCC 2470, 24 h
Staphylococcus aureus [12] = assay: Inhibition of bio-film formation of Staphylococcus aureus MLS16 MTCC 2940 incubated for 24 hrs at 37 degC under static conditions by crystal violet staining method; assay type: functional, organism-based; conditions: MLS16 MTCC 2940, 24 h
Bacillus subtilis [13] = assay: Inhibition of bio-film formation of Bacillus subtilis MTCC 121 incubated for 24 hrs at 37 degC under static conditions by crystal violet staining method; assay type: functional, organism-based; conditions: MTCC 121, 24 h
Escherichia coli [14] = assay: Inhibition of bio-film formation of Escherichia coli MTCC 739 incubated for 24 hrs at 37 degC under static conditions by crystal violet staining method; assay type: functional, organism-based; conditions: MTCC 739, 24 h
Raoultella planticola [15] = assay: Inhibition of bio-film formation of Klebsiella planticola MTCC 530 incubated for 24 hrs at 37 degC under static conditions by crystal violet staining method; assay type: functional, organism-based; conditions: MTCC 530, 24 h
Staphylococcus aureus [16] = assay: Induction of intracellular ROS accumulation in Staphylococcus aureus MLS16 MTCC 2940 sessile biofilm cells at 0.5 to 2 um incubated for 24 hrs at 35 degC by DCFH-DA dye based fluorescence assay; assay type: functional, organism-based

| SMILES | MIC (Staphylococcus aureus [1]) | MIC (Micrococcus luteus [2]) | MIC (Bacillus subtilis [3]) | MIC (Escherichia coli [4]) | MIC (Raoultella planticola [5]) | MIC (Pseudomonas aeruginosa) | MIC (Candida albicans) | MBC (Micrococcus luteus [6]) [µM] | MBC (Staphylococcus aureus [7]) [µM] | MBC (Bacillus subtilis [8]) [µM] | MBC (Escherichia coli [9]) [µM] | MBC (Raoultella planticola [10]) [µM] | IC50 (Micrococcus luteus [11]) [µM] | IC50 (Staphylococcus aureus [12]) [µM] | IC50 (Bacillus subtilis [13]) [µM] | IC50 (Escherichia coli [14]) [µM] | IC50 (Raoultella planticola [15]) [µM] | Activity (Staphylococcus aureus [16]) |
| --- | --- | --- | --- | --- | --- | --- | --- | --- | --- | --- | --- | --- | --- | --- | --- | --- | --- | --- |
| O=C(O)c1cn(C2CC2)c2cc(N3CCNCC3)c(F)cc2c1=O [CIPROFLOXACIN] | 2.7 µM | 2.7 µM | 2.7 µM | 2.7 µM | 2.7 µM | 2.7 µM | > 125 µg/mL | 5.7 (≈ 1.89 µg/mL) | 2.7 (≈ 0.895 µg/mL) | 5.7 (≈ 1.89 µg/mL) | 5.7 (≈ 1.89 µg/mL) | 2.7 (≈ 0.895 µg/mL) | – | – | – | – | – | – |
| Clc1ccc(COC(Cn2ccnc2)c2ccc(Cl)cc2Cl)c(Cl)c1 (stereo not drawn) [MICONAZOLE] | > 125 µg/mL | > 125 µg/mL | > 125 µg/mL | > 125 µg/mL | > 125 µg/mL | > 125 µg/mL | 18.7 µM | – | – | – | – | – | – | – | – | – | – | – |
| O=C(CCBr)NCC1=Cc2ccccc2OC1(O)C(F)(F)F (stereo not drawn) | > 125 µg/mL | > 125 µg/mL | > 125 µg/mL | > 125 µg/mL | > 125 µg/mL | > 125 µg/mL | > 125 µg/mL | – | – | – | – | – | – | – | – | – | – | – |
| O=C(CBr)NCC1=Cc2ccccc2OC1(O)C(F)(F)F (stereo not drawn) | 9.5 µM | 19.1 µM | 9.5 µM | 19.1 µM | 19.1 µM | > 125 µg/mL | > 125 µg/mL | 38.3 (≈ 14 µg/mL) | 19.1 (≈ 6.99 µg/mL) | 19.1 (≈ 6.99 µg/mL) | 38.3 (≈ 14 µg/mL) | 19.1 (≈ 6.99 µg/mL) | 8.3 | 3.6 | 5.1 | 10.5 | 12.7 | – |
| O=C(Cc1ccc(Br)cc1)NCC1=Cc2ccccc2OC1(O)C(F)(F)F (stereo not drawn) | > 125 µg/mL | > 125 µg/mL | 33.6 µM | > 125 µg/mL | 33.6 µM | > 125 µg/mL | > 125 µg/mL | 33.6 (≈ 14.9 µg/mL) | 67.2 (≈ 29.7 µg/mL) | > 230 | > 230 | > 230 | 17.4 | 16.8 | – | – | – | – |
| O=C(CCBr)NCC1=Cc2cc(Br)ccc2OC1(O)C(F)(F)F (stereo not drawn) | > 125 µg/mL | > 125 µg/mL | > 125 µg/mL | > 125 µg/mL | > 125 µg/mL | > 125 µg/mL | > 125 µg/mL | – | – | – | – | – | – | – | – | – | – | – |
| O=C(Cc1cccc(Cl)c1)NCC1=Cc2ccccc2OC1(O)C(F)(F)F (stereo not drawn) | 37.1 µM | > 125 µg/mL | 74.2 µM | > 125 µg/mL | 37.1 µM | > 125 µg/mL | > 125 µg/mL | 74.2 (≈ 29.5 µg/mL) | 37.1 (≈ 14.8 µg/mL) | 74.2 (≈ 29.5 µg/mL) | > 230 | > 230 | 17.1 | 19.7 | 43.8 | – | – | – |
| O=C(Cc1cccc(Cl)c1)NCC1=Cc2cc(Br)ccc2OC1(O)C(F)(F)F (stereo not drawn) | 15.6 µM | 31.2 µM | 31.2 µM | 15.6 µM | 31.2 µM | > 125 µg/mL | > 125 µg/mL | 74.2 (≈ 35.4 µg/mL) | 37.1 (≈ 17.7 µg/mL) | 74.2 (≈ 35.4 µg/mL) | 37.1 (≈ 17.7 µg/mL) | 74.2 (≈ 35.4 µg/mL) | 18.4 | 9.2 | 22.2 | 8.2 | 24.6 | – |
| O=C(Cc1ccccc1)NCC1=Cc2ccccc2OC1(O)C(F)(F)F (stereo not drawn) | > 125 µg/mL | > 125 µg/mL | > 125 µg/mL | > 125 µg/mL | > 125 µg/mL | > 125 µg/mL | > 125 µg/mL | – | – | – | – | – | – | – | – | – | – | – |
| O=C(Cc1ccc(Br)cc1)NCC1=Cc2cc(Br)ccc2OC1(O)C(F)(F)F (stereo not drawn) | 14.3 µM | 28.6 µM | 14.3 µM | 14.3 µM | 14.3 µM | > 125 µg/mL | > 125 µg/mL | 28.6 (≈ 14.9 µg/mL) | 14.3 (≈ 7.45 µg/mL) | 28.6 (≈ 14.9 µg/mL) | 14.3 (≈ 7.45 µg/mL) | 57.3 (≈ 29.9 µg/mL) | 7.7 | 6.2 | 8.8 | 5.8 | 14.8 | – |
| O=C(CCCCBr)NCC1=Cc2ccccc2OC1(O)C(F)(F)F (stereo not drawn) | > 125 µg/mL | > 125 µg/mL | > 125 µg/mL | > 125 µg/mL | > 125 µg/mL | > 125 µg/mL | > 125 µg/mL | – | – | – | – | – | – | – | – | – | – | – |
| O=C(CBr)NCC1=Cc2cc(Br)ccc2OC1(O)C(F)(F)F (stereo not drawn) | 4 µM | 8.3 µM | 4 µM | 8.3 µM | 4 µM | > 125 µg/mL | > 125 µg/mL | 8.3 (≈ 3.69 µg/mL) | 4 (≈ 1.78 µg/mL) | 4 (≈ 1.78 µg/mL) | 16.6 (≈ 7.39 µg/mL) | 8.3 (≈ 3.69 µg/mL) | 1.7 | 1.2 | 1.4 | 1.4 | 1.7 | Active |
| O=C(CCCCBr)NCC1=Cc2cc(Br)ccc2OC1(O)C(F)(F)F (stereo not drawn) | > 125 µg/mL | > 125 µg/mL | > 125 µg/mL | > 125 µg/mL | > 125 µg/mL | > 125 µg/mL | > 125 µg/mL | – | – | – | – | – | – | – | – | – | – | – |
| O=C(CCBr)NCC1=Cc2cccc(F)c2OC1(O)C(F)(F)F (stereo not drawn) | > 125 µg/mL | – | – | – | – | – | > 125 µg/mL | – | – | – | – | – | – | – | – | – | – | – |
| O=C(Cc1ccccc1)NCC1=Cc2cc(Br)ccc2OC1(O)C(F)(F)F (stereo not drawn) | 33.6 µM | > 125 µg/mL | > 125 µg/mL | > 125 µg/mL | 33.6 µM | > 125 µg/mL | > 125 µg/mL | 33.6 (≈ 14.9 µg/mL) | 67.2 (≈ 29.7 µg/mL) | > 230 | > 230 | > 230 | 19.1 | 21.9 | – | – | – | – |
| CC(=O)NCC1=Cc2cc(Br)ccc2OC1(O)C(F)(F)F (stereo not drawn) | > 125 µg/mL | > 125 µg/mL | > 125 µg/mL | > 125 µg/mL | > 125 µg/mL | > 125 µg/mL | > 125 µg/mL | – | – | – | – | – | – | – | – | – | – | – |
| CC[C@H]1OC(=O)[C@H](C)[C@@H](O[C@H]2C[C@@](C)(OC)[C@@H](O)[C@H](C)O2)[C@H](C)[C@@H](O[C@@H]2O[C@H](C)C[C@H](N(C)C)[C@H]2O)[C@](C)(O)C[C@@H](C)C(=O)[C@H](C)[C@@H](O)[C@]1(C)O [ERYTHROMYCIN] | – | – | – | – | – | – | – | – | – | – | – | – | 0.31 | 0.25 | 0.42 | 0.43 | 0.35 | Active |
| CC(=O)NCC1=Cc2ccccc2OC1(O)C(F)(F)F (stereo not drawn) | > 125 µg/mL | > 125 µg/mL | > 125 µg/mL | > 125 µg/mL | > 125 µg/mL | > 125 µg/mL | > 125 µg/mL | – | – | – | – | – | – | – | – | – | – | – |
